Key:
Format in all cases: functional
Enterobacter cloacae [1] = assay: Antimicrobial activity against carbapenem-resistant Enterobacter cloacae isolated from ICU patient respiratory tract assessed as resistant isolates by broth microdilution method in presence of beta-lactamase inhibitor Tazobactam
Haemophilus influenzae [2] = assay: Antimicrobial activity against Haemophilus influenzae isolated from ICU patient blood assessed as resistant isolates by broth microdilution method in presence of beta-lactamase inhibitor Tazobactam
[3] = system: Staphylococcus epidermidis; assay: Antimicrobial activity against methicillin-resistant Staphylococcus epidermidis isolated from ICU patient wound assessed as resistant isolates by broth microdilution method in presence of beta-lactamase inhibitor Tazobactam
Enterobacter cloacae [4] = assay: Antimicrobial activity against carbapenem-resistant Enterobacter cloacae assessed as resistant isolates by broth microdilution method in presence of beta-lactamase inhibitor Tazobactam
[5] = system: Staphylococcus epidermidis; assay: Antimicrobial activity against methicillin-susceptible Staphylococcus epidermidis isolated from ICU patient urine assessed as resistant isolates by broth microdilution method in presence of beta-lactamase inhibitor Tazobactam
Klebsiella pneumoniae [6] = assay: Antimicrobial activity against ESBL producing Klebsiella pneumoniae isolated from ICU patient urine assessed as resistant isolates by broth microdilution method in presence of beta-lactamase inhibitor Tazobactam
Enterococcus sp. [7] = assay: Antimicrobial activity against vancomycin-resistant Enterococcus sp. isolated from ICU patient urine assessed as resistant isolates by broth microdilution method in presence of beta-lactamase inhibitor Tazobactam
Enterobacter cloacae [8] = assay: Antimicrobial activity against carbapenem-resistant Enterobacter cloacae isolated from ICU patient wound assessed as resistant isolates by broth microdilution method in presence of beta-lactamase inhibitor Tazobactam
Staphylococcus aureus [9] = assay: Antimicrobial activity against methicillin-resistant Staphylococcus aureus assessed as resistant isolates by broth microdilution method in presence of beta-lactamase inhibitor Tazobactam
Escherichia coli [10] = assay: Antimicrobial activity against CTX-M ESBL producing Escherichia coli isolated from ICU patient blood assessed as resistant isolates by broth microdilution method in presence of beta-lactamase inhibitor Tazobactam
[11] = system: Staphylococcus epidermidis; assay: Antimicrobial activity against methicillin-resistant Staphylococcus epidermidis assessed as resistant isolates by broth microdilution method in presence of beta-lactamase inhibitor Tazobactam
Staphylococcus aureus [12] = assay: Antimicrobial activity against methicillin-susceptible Staphylococcus aureus isolated from ICU patient blood assessed as resistant isolates by broth microdilution method in presence of beta-lactamase inhibitor Tazobactam
[13] = system: Staphylococcus epidermidis; assay: Antimicrobial activity against methicillin-susceptible Staphylococcus epidermidis isolated from ICU patient wound assessed as resistant isolates by broth microdilution method in presence of beta-lactamase inhibitor Tazobactam
Staphylococcus aureus [14] = assay: Antimicrobial activity against methicillin-susceptible Staphylococcus aureus isolated from ICU patient respiratory tract assessed as resistant isolates by broth microdilution method in presence of beta-lactamase inhibitor Tazobactam
Enterobacter cloacae [15] = assay: Antimicrobial activity against carbapenem-resistant Enterobacter cloacae isolated from ICU patient urine assessed as resistant isolates by broth microdilution method in presence of beta-lactamase inhibitor Tazobactam
Pseudomonas aeruginosa [16] = assay: Antimicrobial activity against carbapenem-resistant Pseudomonas aeruginosa isolated from ICU patient respiratory tract assessed as resistant isolates by broth microdilution method in presence of beta-lactamase inhibitor Tazobactam
[17] = system: Staphylococcus epidermidis; assay: Antimicrobial activity against methicillin-resistant Staphylococcus epidermidis isolated from ICU patient blood assessed as resistant isolates by broth microdilution method in presence of beta-lactamase inhibitor Tazobactam
Enterobacter cloacae [18] = assay: Antimicrobial activity against carbapenem-resistant Enterobacter cloacae isolated from ICU patient blood assessed as resistant isolates by broth microdilution method in presence of beta-lactamase inhibitor Tazobactam
Enterococcus sp. [19] = assay: Antimicrobial activity against vancomycin-resistant Enterococcus sp. isolated from ICU patient wound assessed as resistant isolates by broth microdilution method in presence of beta-lactamase inhibitor Tazobactam
Pseudomonas aeruginosa [20] = assay: Antimicrobial activity against carbapenem-resistant Pseudomonas aeruginosa isolated from ICU patient urine assessed as resistant isolates by broth microdilution method in presence of beta-lactamase inhibitor Tazobactam
Escherichia coli [21] = assay: Antimicrobial activity against CTX-M ESBL producing Escherichia coli assessed as resistant isolates by broth microdilution method in presence of beta-lactamase inhibitor Tazobactam
Enterococcus sp. [22] = assay: Antimicrobial activity against vancomycin-resistant Enterococcus sp. isolated from ICU patient respiratory tract assessed as resistant isolates by broth microdilution method
Pseudomonas aeruginosa [23] = assay: Antimicrobial activity against carbapenem-resistant Pseudomonas aeruginosa isolated from ICU patient blood assessed as resistant isolates by broth microdilution method in presence of beta-lactamase inhibitor Tazobactam
Klebsiella pneumoniae [24] = assay: Antimicrobial activity against ESBL producing Klebsiella pneumoniae isolated from ICU patient respiratory tract assessed as resistant isolates by broth microdilution method in presence of beta-lactamase inhibitor Tazobactam
[25] = system: Staphylococcus epidermidis; assay: Antimicrobial activity against methicillin-susceptible Staphylococcus epidermidis assessed as resistant isolates by broth microdilution method in presence of beta-lactamase inhibitor Tazobactam
Klebsiella pneumoniae [26] = assay: Antimicrobial activity against ESBL producing Klebsiella pneumoniae assessed as resistant isolates by broth microdilution method in presence of beta-lactamase inhibitor Tazobactam
Pseudomonas aeruginosa [27] = assay: Antimicrobial activity against carbapenem-resistant Pseudomonas aeruginosa isolated from ICU patient wound assessed as resistant isolates by broth microdilution method in presence of beta-lactamase inhibitor Tazobactam
Staphylococcus aureus [28] = assay: Antimicrobial activity against methicillin-resistant Staphylococcus aureus isolated from ICU patient urine assessed as resistant isolates by broth microdilution method in presence of beta-lactamase inhibitor Tazobactam
Staphylococcus aureus [29] = assay: Antimicrobial activity against methicillin-resistant Staphylococcus aureus isolated from ICU patient respiratory tract assessed as resistant isolates by broth microdilution method in presence of beta-lactamase inhibitor Tazobactam
Staphylococcus aureus [30] = assay: Antimicrobial activity against methicillin-susceptible Staphylococcus aureus isolated from ICU patient urine assessed as resistant isolates by broth microdilution method in presence of beta-lactamase inhibitor Tazobactam
[31] = system: Staphylococcus epidermidis; assay: Antimicrobial activity against methicillin-resistant Staphylococcus epidermidis isolated from ICU patient urine assessed as resistant isolates by broth microdilution method in presence of beta-lactamase inhibitor Tazobactam
Staphylococcus aureus [32] = assay: Antimicrobial activity against methicillin-susceptible Staphylococcus aureus assessed as resistant isolates by broth microdilution method in presence of beta-lactamase inhibitor Tazobactam
Enterococcus sp. [33] = assay: Antimicrobial activity against vancomycin-resistant Enterococcus sp. isolated from ICU patient respiratory tract assessed as resistant isolates by broth microdilution method in presence of beta-lactamase inhibitor Tazobactam
Pseudomonas aeruginosa [34] = assay: Antimicrobial activity against carbapenem-resistant Pseudomonas aeruginosa assessed as resistant isolates by broth microdilution method in presence of beta-lactamase inhibitor Tazobactam
Enterococcus sp. [35] = assay: Antimicrobial activity against vancomycin-resistant Enterococcus sp. isolated from ICU patient blood assessed as resistant isolates by broth microdilution method in presence of beta-lactamase inhibitor Tazobactam
Staphylococcus aureus [36] = assay: Antimicrobial activity against methicillin-resistant Staphylococcus aureus isolated from ICU patient wound assessed as resistant isolates by broth microdilution method in presence of beta-lactamase inhibitor Tazobactam
Haemophilus influenzae [37] = assay: Antimicrobial activity against Haemophilus influenzae isolated from ICU patient respiratory tract assessed as resistant isolates by broth microdilution method in presence of beta-lactamase inhibitor Tazobactam
Escherichia coli [38] = assay: Antimicrobial activity against CTX-M ESBL producing Escherichia coli isolated from ICU patient respiratory tract assessed as resistant isolates by broth microdilution method in presence of beta-lactamase inhibitor Tazobactam
Klebsiella pneumoniae [39] = assay: Antimicrobial activity against ESBL producing Klebsiella pneumoniae isolated from ICU patient blood assessed as resistant isolates by broth microdilution method in presence of beta-lactamase inhibitor Tazobactam
[40] = system: Staphylococcus epidermidis; assay: Antimicrobial activity against methicillin-susceptible Staphylococcus epidermidis isolated from ICU patient respiratory tract assessed as resistant isolates by broth microdilution method in presence of beta-lactamase inhibitor Tazobactam
Haemophilus influenzae [41] = assay: Antimicrobial activity against Haemophilus influenzae assessed as resistant isolates by broth microdilution method in presence of beta-lactamase inhibitor Tazobactam
Staphylococcus aureus [42] = assay: Antimicrobial activity against methicillin-resistant Staphylococcus aureus isolated from ICU patient blood assessed as resistant isolates by broth microdilution method in presence of beta-lactamase inhibitor Tazobactam
Enterococcus sp. [43] = assay: Antimicrobial activity against vancomycin-resistant Enterococcus sp. assessed as resistant isolates by broth microdilution method in presence of beta-lactamase inhibitor Tazobactam
Klebsiella pneumoniae [44] = assay: Antimicrobial activity against ESBL producing Klebsiella pneumoniae isolated from ICU patient wound assessed as resistant isolates by broth microdilution method in presence of beta-lactamase inhibitor Tazobactam
Haemophilus influenzae [45] = assay: Antimicrobial activity against Haemophilus influenzae isolated from ICU patient wound assessed as resistant isolates by broth microdilution method in presence of beta-lactamase inhibitor Tazobactam
Staphylococcus aureus [46] = assay: Antimicrobial activity against methicillin-susceptible Staphylococcus aureus isolated from ICU patient wound assessed as resistant isolates by broth microdilution method in presence of beta-lactamase inhibitor Tazobactam
Escherichia coli [47] = assay: Antimicrobial activity against CTX-M ESBL producing Escherichia coli isolated from ICU patient wound assessed as resistant isolates by broth microdilution method in presence of beta-lactamase inhibitor Tazobactam
Escherichia coli [48] = assay: Antimicrobial activity against CTX-M ESBL producing Escherichia coli isolated from ICU patient urine assessed as resistant isolates by broth microdilution method in presence of beta-lactamase inhibitor Tazobactam
[49] = system: Staphylococcus epidermidis; assay: Antimicrobial activity against methicillin-susceptible Staphylococcus epidermidis isolated from ICU patient blood assessed as resistant isolates by broth microdilution method in presence of beta-lactamase inhibitor Tazobactam

`CCN1CCN(C(=O)N[C@@H](C(=O)N[C@@H]2C(=O)N3[C@@H]2SC(C)(C)[C@@H]3C(=O)O)c2ccccc2)C(=O)C1=O` [PIPERACILLIN] gave an Activity (Enterobacter cloacae [1]) of 4.6%, an Activity (Haemophilus influenzae [2]) of 0% and an Activity [3] of 100%. The Activity (Enterobacter cloacae [4]) was 4.9%, the Activity [5] was 0% and the Activity (Klebsiella pneumoniae [6]) was 13.3%. The Activity (Enterococcus sp. [7]) was 17.3%, the Activity (Enterobacter cloacae [8]) was 0% and the Activity (Staphylococcus aureus [9]) was 100%. It also gave an Activity (Escherichia coli [10]) of 6.9%, an Activity [11] of 100% and an Activity (Staphylococcus aureus [12]) of 0%. For the same molecule, the Activity [13] was 4.2%, the Activity (Staphylococcus aureus [14]) was 0% and the Activity (Enterobacter cloacae [15]) was 12.5%. For the same molecule, the Activity (Pseudomonas aeruginosa [16]) was 2.5%, the Activity [17] was 100% and the Activity (Enterobacter cloacae [18]) was 4.2%. The Activity (Enterococcus sp. [19]) was 22.2%, the Activity (Pseudomonas aeruginosa [20]) was 0% and the Activity (Escherichia coli [21]) was 1.9%. The Activity (Enterococcus sp. [22]) was 0%, the Activity (Pseudomonas aeruginosa [23]) was 0% and the Activity (Klebsiella pneumoniae [24]) was 7.3%. For the same molecule, the Activity [25] was 1.2%, the Activity (Klebsiella pneumoniae [26]) was 9.3% and the Activity (Pseudomonas aeruginosa [27]) was 0%. It also gave an Activity (Staphylococcus aureus [28]) of 100%, an Activity (Staphylococcus aureus [29]) of 100% and an Activity (Staphylococcus aureus [30]) of 0%. The Activity [31] was 100%, the Activity (Staphylococcus aureus [32]) was 0% and the Activity (Enterococcus sp. [33]) was 13.3%. The Activity (Pseudomonas aeruginosa [34]) was 1.3%, the Activity (Enterococcus sp. [35]) was 27% and the Activity (Staphylococcus aureus [36]) was 100%. The Activity (Haemophilus influenzae [37]) was 0.3%, the Activity (Escherichia coli [38]) was 1.6% and the Activity (Klebsiella pneumoniae [39]) was 6.1%. It also gave an Activity [40] of 0%, an Activity (Haemophilus influenzae [41]) of 0.3% and an Activity (Staphylococcus aureus [42]) of 100%. The Activity (Enterococcus sp. [43]) was 21.1%, the Activity (Klebsiella pneumoniae [44]) was 18.9% and the Activity (Haemophilus influenzae [45]) was 0%. For the same molecule, the Activity (Staphylococcus aureus [46]) was 0%, the Activity (Escherichia coli [47]) was 0% and the Activity (Escherichia coli [48]) was 1.1%. The Activity [49] was 0%.
